Patent US6355662B1, “Non-peptidyl inhibitors of a VLA-4 dependent cell binding useful in treating inflammatory, autoimmune, and respiratory diseases” (Pfizer Inc, priority 1998, dated 2002)

| melting point | Structure (SMILES) |
| --- | --- |
| 197 to 198 °C | COc1ccccc1NC(=O)Nc1ccc(CC(=O)NC(CC(C)C)c2ncc(CCC(=O)O)s2)cc1 (stereo not shown) [Example 16, 3-{2-[1-(2-{4-[3-(2-Methoxy-phenyl)-ureido]-phenyl}-acetylamino)-3-methyl-butyl]-thiazol-5-yl}-propionic acid] |
| 150 to 152 °C | CCOC(=O)CC(=O)c1cc(C(CC(C)C)NC(=O)Cc2ccc(NC(=O)Nc3ccccc3Cl)cc2)no1 (stereo not shown) [Example 26, 3-{3-[1-(2-{4-[3-(2-Chloro-phenyl)-ureido]-phenyl}-acetylamino)-3-methyl-butyl]-isoxazol-5-yl}-3-oxo-propionic acid ethyl ester] |
| 173 to 175 °C | CC(C)CC(NC(=O)Cc1ccc(NC(=O)Nc2ccccc2Cl)cc1)c1ncc(CCC(=O)O)s1 (stereo not shown) [Example 15, 3-{2-[1-(2-{4-[3-(2-Chloro-phenyl)-ureido]-phenyl}-acetylamino)-3-methyl-butyl]-thiazol-5-yl}-propionic acid] |
| 168 to 170 °C | Cc1ccccc1NC(=O)Nc1ccc(CC(=O)NC(CC(C)C)c2ncc(CCC(=O)O)o2)cc1 (stereo not shown) [Example 8, [2-(3-Methyl-1-{2-[4-(3-o-tolyl-ureido)-phenyl]-acetylamino}-butyl)oxazol-5-yl]-propionic acid] |
| 146 to 148 °C | CC(C)CC(NC(=O)Cc1ccc(NC(=O)Nc2ccccc2)cc1)c1ncc(CCC(=O)O)s1 (stereo not shown) [Example 22, 3-[2-(3-Methyl-1-{2-[4-(3-phenyl-ureido)-phenyl]-acetylamino}-butyl)-thiazol-5-yl]-propionic acid] |
| 83 to 85 °C | CC(C)CC(NC(=O)Cc1ccc(NC(=O)Nc2ccccc2F)cc1)c1ncc(CCC(=O)O)s1 (stereo not shown) [Example 17, 3-{2-[1-(2-{4-[3-(2-Fluoro-phenyl)-ureido]-phenyl}-acetylamino)-3-methyl-butyl]-thiazol-5-yl}-propionic acid] |
| 148 to 150 °C | CC(C)CC(NC(=O)Cc1ccc(NC(=O)Nc2c(Cl)cccc2Cl)cc1)c1ncc(CCC(=O)O)s1 (stereo not shown) [Example 19, 3-{2-[1-(2-{4-[3-(2,6-Dichloro-phenyl)-ureido]-phenyl}-acetylamino)-3-methyl-butyl]-thiazol-5-yl}-propionic acid] |
| 173 to 175 °C | Cc1ccccc1NC(=O)Nc1ccc(CC(=O)NC(CC(C)C)C2=NOC(CCC(=O)O)(CCC(=O)O)C2)cc1 (stereo not shown) [Example 6, 3-[5-(2-Carboxy-ethyl)-3-(3-methyl-1-{2-[4-(3-o-tolyl-ureido)-phenyl]-acetylamino}-butyl)-4,5dihydro-isoxazol-5-yl]-propionic acid] |
| 160 to 162 °C | Cc1cccc(Cl)c1NC(=O)Nc1ccc(CC(=O)NC(CC(C)C)c2ncc(CCC(=O)O)s2)cc1 (stereo not shown) [Example 21, 3-{2-[1-(2-{4-[3-(2-Chloro-6-methyl-phenyl)-ureido]-phenyl}-acetylamino)-3-methyl-butyl]-thiazol-5-yl}-propionic acid] |
| 173 to 175 °C | CC(C)CC(NC(=O)Cc1ccc(NC(=O)Nc2ccccn2)cc1)c1ncc(CCC(=O)O)s1 (stereo not shown) [Example 11, [2-(3-Methyl-1-{2-[4-(3-pyridin-2-yl-ureido)-phenyl]-acetylamino}-butyl)-thiazol-5-yl]-propionic acid] |
| 159 to 161 °C | CC(C)CC(NC(=O)Cc1ccc(NC(=O)Nc2ccccn2)cc1)c1cc(CCC(=O)O)on1 (stereo not shown) [Example 10, [3-(3-Methyl-1-{2-[4-(3-pyridin-2-yl-ureido)-phenyl]-acetylamino}-butyl)-isoxazol-5-yl]-propionic acid] |
| 125 to 127 °C | Cc1cccc(C)c1NC(=O)Nc1ccc(CC(=O)NC(CC(C)C)c2ncc(CCC(=O)O)s2)cc1 (stereo not shown) [Example 20, 3-{2-[1-(2-{4-[3-(2,6-Dimethyl-phenyl)-ureido]-phenyl}-acetylamino)-3-methyl-butyl]-thiazol-5-yl}-propionic acid] |
| 143 to 145 °C | CC(C)CC(NC(=O)Cc1ccc(NC(=O)Nc2ccccc2Cl)cc1)c1cc(CCC(=O)O)on1 (stereo not shown) [Example 24, 3-{3-[1-(2-{4-[3-(2-Chloro-phenyl)-ureido]-phenyl}-acetylamino)-3-methyl-butyl]-isoxazol-5-yl}propionic acid] |
| 136 to 138 °C | Cc1ccccc1NC(=O)Nc1ccc(CC(=O)NC(CC(C)C)c2cc(/C=C/C(=O)O)on2)cc1 (stereo not shown) [Example 18, 3-[3-(3-Methyl-1-{2-[4-(3-o-tolyl-ureido)-phenyl]-acetylamino}-butyl)-isoxazol-5-yl]-acrylic acid] |
| 103 to 105 °C | Cc1ccccc1NC(=O)Nc1ccc(CC(=O)N2CCN(CCC(=O)O)C(=O)C2Cc2ccccc2)cc1 (stereo not shown) [Example 4, (3-Benzyl-2-oxo-4-{[4-(3-o-tolyl-ureido)-phenyl]-acetyl}-piperazin-1-yl)-propionic acid] |
| 195 to 197 °C | Cc1ccccc1NC(=O)Nc1ccc(CC(=O)NC2(c3cc(CCC(=O)O)on3)CCCC2)cc1 [Example 9, 3-[3-(1-{2-[4-(3-o-Tolyl-ureido)-phenyl]-acetylamino}-cyclopentyl)-isoxazol-5-yl]-propionic acid] |
